# Assays:
# Type in all cases: physicochemical
# [1] = Stability of aqueous solutions of C21 (free C21 1 mg/mL in 0.9% NaCl pH 9.4; sodium salt likewise) under four storage conditions, HPLC; conditions: for light-induced degradation: aqueous solution, RT/light; for chemical stability: solution stored in dark at 5° C., RT and 40° C. for four weeks
# Method: The stability of free C21 in 0.9% NaCl pH 9.4 was investigated.
# Solutions of 1 mg/mL of C21 were studied for four weeks under four different storage conditions. The solution was filtered through a 0.22 sterile syringe filter to minimize bacterial growth during the stability test. The samples were analysed by HPLC for purity.
# The results are summarised in Table 3 below, in which the amount of C21 is given as a percentage of the initial amount of drug. Solution pHs were also measured and are shown within parenthesis in Table 3.
# The stability of the sodium salt of C21 was also investigated under the same storage conditions.
# At the time for analysis of the one week samples, it was noted that the heating cabinet for storage of samples at 40° C. was broken. In view of this, these samples were thereafter kept at room temperature for three days.
# [2] = Solubility of C21 sodium salt in aqueous vehicles
# Method: In this experiment, C21 sodium salt (Syntagon AB) was added to the vehicle, small amounts at a time. About 20-30 mg of the sodium salt was easily dissolved in all the vehicles tested. Salt was continuously added to the same sample in an attempt to obtain a saturated solution. In this way, higher amounts, such as 40-60 mg/mL could be dissolved. The solubility is probably even higher than this in the vehicles tested, but this was not established in view of the limited amount of drug compound available.
# [3] = Excipient compatibility study, 60° C. for 12 days (related impurities)
# Method: The excipients used in the capsules in Comparative Example 3 above were evaluated along with some additional ones (see Table 8 below).
# C21 (sodium salt) used in these experiments was ground and passed through a 300 μm sieve. Mixtures of each excipient and C21 were prepared by thorough mixing in the amounts specified in Table 8. The ratio of C21 to various fillers (D-mannitol, MCC, lactose monohydrate and HPMC) was adapted to give a volume equivalent to the larger part of a capsule.
# Three capsules of each type were filled with C21. All preparations were stored under accelerated stability conditions at 60° C. for 12 days prior to analysis.
# In addition to the disintegrants (sodium starch glycolate and croscarmellose sodium) mentioned above, crospovidone of two different types (Kollidon® CL (Type A), and Kollidon® CL-SF (Type B) (both BASF) were tested.
# Mixtures of 130 mg crospovidone and 200 mg C21 were prepared and were thoroughly mixed using a Turbula mixer for 10 minutes. All of these preparations were analysed at time zero and after storage at accelerated stability conditions at 60° C. for 12 days.
# [4] = Accelerated stability of C21/mannitol powder mixtures, 60° C. for 12 days
# Method: C21 sodium salt was used together with 7 different types of mannitol from two different manufacturers.
# C21 and mannitol were added to glass flasks and were mixed together using a Turbula mixer. At a mixing time of 30 minutes, each flask was sampled for homogeneity and related impurities were analysed.
# An aliquot of each powder mixture was also subjected to 60° C. for 12 days in a stability analysis. The nominal content of C21 was 7.4% w/w (calculated as free C21) for all mannitol mixtures except one, where an additional strength of 14.8% w/w was also tested.
smiles,measurement,setting,value
"CCCCOC(=O)NS(=O)(=O)c1sc(CC(C)C)cc1-c1ccc(Cn2ccnc2)cc1 [free C21, N-butyloxycarbonyl-3-(4-imidazol-1-ylmethylphenyl)-5-iso-butylthiophene-2-sulfonamide]","Amount of Free C21, % of initial","[1]; 5° C., dark, 1 week",101 % of initial
same,Solution pH (within parenthesis),"[1]; 5° C., dark, 1 week",9.2
same,"Amount of Free C21, % of initial","[1]; 5° C., dark, 2 weeks",107 % of initial
same,Solution pH (within parenthesis),"[1]; 5° C., dark, 2 weeks",9.2
same,"Amount of Free C21, % of initial","[1]; 5° C., dark, 3 weeks",108 % of initial
same,Solution pH (within parenthesis),"[1]; 5° C., dark, 3 weeks",9.1
same,"Amount of Free C21, % of initial","[1]; 5° C., dark, 4 weeks",108 % of initial
same,Solution pH (within parenthesis),"[1]; 5° C., dark, 4 weeks",9.2
same,"Amount of Free C21, % of initial","[1]; 5° C., dark, Initial",100 % of initial
same,Solution pH (within parenthesis),"[1]; 5° C., dark, Initial",9.4
same,"Amount of Free C21, % of initial","[1]; 40° C., dark, 1 week",101 % of initial
same,Solution pH (within parenthesis),"[1]; 40° C., dark, 1 week",9.0
same,"Amount of Free C21, % of initial","[1]; 40° C., dark, 2 weeks",111 % of initial
same,Solution pH (within parenthesis),"[1]; 40° C., dark, 2 weeks",8.6
same,"Amount of Free C21, % of initial","[1]; 40° C., dark, 3 weeks",106 % of initial
same,Solution pH (within parenthesis),"[1]; 40° C., dark, 3 weeks",8.7
same,"Amount of Free C21, % of initial","[1]; 40° C., dark, 4 weeks",107 % of initial
same,Solution pH (within parenthesis),"[1]; 40° C., dark, 4 weeks",8.7
same,"Amount of Free C21, % of initial","[1]; 40° C., dark, Initial",100 % of initial
same,Solution pH (within parenthesis),"[1]; 40° C., dark, Initial",9.4
same,"Amount of Free C21, % of initial","[1]; RT, dark, 1 week",97 % of initial
same,Solution pH (within parenthesis),"[1]; RT, dark, 1 week",(9.2)
same,"Amount of Free C21, % of initial","[1]; RT, dark, 2 weeks",109 % of initial
same,Solution pH (within parenthesis),"[1]; RT, dark, 2 weeks",(8.9)
same,"Amount of Free C21, % of initial","[1]; RT, dark, 3 weeks",105 % of initial
same,Solution pH (within parenthesis),"[1]; RT, dark, 3 weeks",(9.0)
same,"Amount of Free C21, % of initial","[1]; RT, dark, 4 weeks",106 % of initial
same,Solution pH (within parenthesis),"[1]; RT, dark, 4 weeks",(8.9)
same,"Amount of Free C21, % of initial","[1]; RT, dark, Initial",100 % of initial
same,Solution pH (within parenthesis),"[1]; RT, dark, Initial",(9.4)
same,"Amount of Free C21, % of initial","[1]; RT, light, 1 week",96 % of initial
same,Solution pH (within parenthesis),"[1]; RT, light, 1 week",(9.0)
same,"Amount of Free C21, % of initial","[1]; RT, light, 2 weeks",44 % of initial
same,Solution pH (within parenthesis),"[1]; RT, light, 2 weeks",(8.0)
same,"Amount of Free C21, % of initial","[1]; RT, light, 3 weeks",96 % of initial
same,Solution pH (within parenthesis),"[1]; RT, light, 3 weeks",(8.5)
same,"Amount of Free C21, % of initial","[1]; RT, light, 4 weeks",13 % of initial
same,Solution pH (within parenthesis),"[1]; RT, light, 4 weeks",(7.7)
same,"Amount of Free C21, % of initial","[1]; RT, light, Initial",100 % of initial
same,Solution pH (within parenthesis),"[1]; RT, light, Initial",(9.4)
same,light-induced degradation,[1],light-induced degradation occurs
same,total impurity peak area,"[1]; free C21 solution, samples stored at 5° C., RT/dark and 40° C.",around 2.5 area % of C21 peak area
same,chemical stability,[1],chemically stable
CCCCOC(=O)[N-]S(=O)(=O)c1sc(CC(C)C)cc1-c1ccc(Cn2ccnc2)cc1.[Na+] [C21 sodium salt],amount that could be dissolved,"[2]; salt continuously added, vehicles tested, saturation not established",40 to 60 mg/mL
same,solubility compared with free C21,[2]; similar experiment,considerably higher than free C21
same,Concentration (solubility),"[2]; vehicle 0.9% NaCl, pH 9.3",>40 mg/mL
same,Concentration (solubility),"[2]; vehicle H2O, pH 9.8",>65 mg/mL
same,Concentration (solubility),"[2]; vehicle PBS pH 7.4, measured pH 9.4",>40 mg/mL
same,"Amount of Free C21, % of initial","[1]; 5° C., dark, 1 week",108 % of initial
same,Solution pH (within parenthesis),"[1]; 5° C., dark, 1 week",8.5
same,"Amount of Free C21, % of initial","[1]; 5° C., dark, 2 weeks",113 % of initial
same,Solution pH (within parenthesis),"[1]; 5° C., dark, 2 weeks",8.4
same,"Amount of Free C21, % of initial","[1]; 5° C., dark, 3 weeks",113 % of initial
same,Solution pH (within parenthesis),"[1]; 5° C., dark, 3 weeks",8.5
same,"Amount of Free C21, % of initial","[1]; 5° C., dark, 4 weeks",112 % of initial
same,Solution pH (within parenthesis),"[1]; 5° C., dark, 4 weeks",8.5
same,"Amount of Free C21, % of initial","[1]; 5° C., dark, Initial",100 % of initial
same,Solution pH (within parenthesis),"[1]; 5° C., dark, Initial",8.3
same,"Amount of Free C21, % of initial","[1]; 40° C., dark, 1 week",111 % of initial
same,Solution pH (within parenthesis),"[1]; 40° C., dark, 1 week",8.6
same,"Amount of Free C21, % of initial","[1]; 40° C., dark, 2 weeks",111 % of initial
same,Solution pH (within parenthesis),"[1]; 40° C., dark, 2 weeks",8.5
same,"Amount of Free C21, % of initial","[1]; 40° C., dark, 3 weeks",109 % of initial
same,Solution pH (within parenthesis),"[1]; 40° C., dark, 3 weeks",8.7
same,"Amount of Free C21, % of initial","[1]; 40° C., dark, 4 weeks",118 % of initial
same,Solution pH (within parenthesis),"[1]; 40° C., dark, 4 weeks",8.1
same,"Amount of Free C21, % of initial","[1]; 40° C., dark, Initial",100 % of initial
same,Solution pH (within parenthesis),"[1]; 40° C., dark, Initial",8.3
same,"Amount of Free C21, % of initial","[1]; RT, dark, 1 week",115 % of initial
same,Solution pH (within parenthesis),"[1]; RT, dark, 1 week",8.6
same,"Amount of Free C21, % of initial","[1]; RT, dark, 2 weeks",110 % of initial
same,Solution pH (within parenthesis),"[1]; RT, dark, 2 weeks",8.8
same,"Amount of Free C21, % of initial","[1]; RT, dark, 3 weeks",111 % of initial
same,Solution pH (within parenthesis),"[1]; RT, dark, 3 weeks",8.8
same,"Amount of Free C21, % of initial","[1]; RT, dark, 4 weeks",112 % of initial
same,Solution pH (within parenthesis),"[1]; RT, dark, 4 weeks",8.2
same,"Amount of Free C21, % of initial","[1]; RT, dark, Initial",100 % of initial
same,Solution pH (within parenthesis),"[1]; RT, dark, Initial",8.3
same,"Amount of Free C21, % of initial","[1]; RT, light, 1 week",108 % of initial
same,Solution pH (within parenthesis),"[1]; RT, light, 1 week",(8.4)
same,"Amount of Free C21, % of initial","[1]; RT, light, 2 weeks",96 % of initial
same,Solution pH (within parenthesis),"[1]; RT, light, 2 weeks",(8.0)
same,"Amount of Free C21, % of initial","[1]; RT, light, 3 weeks",72 % of initial
same,Solution pH (within parenthesis),"[1]; RT, light, 3 weeks",(8.3)
same,"Amount of Free C21, % of initial","[1]; RT, light, 4 weeks",9 % of initial
same,Solution pH (within parenthesis),"[1]; RT, light, 4 weeks",(7.3)
same,"Amount of Free C21, % of initial","[1]; RT, light, Initial",100 % of initial
same,Solution pH (within parenthesis),"[1]; RT, light, Initial",(8.3)
same,light-induced degradation,[1],light-induced degradation occurs
same,chemical stability,[1],chemically stable
same,Degradation: Sum of impurities (≥0.05%),[3],0.26%
same,Individual Impurity 1,[3],0.26 area %
same,degradation of C21,[3],No degradation
same,Impurities ≥0.05% Formed: 1,[4],0.26 area %

# From patent US11844868B2, “Dry powder composition for peroral administration” (VICORE PHARMA AB, priority 2020, dated 2023)
